PubChem BioAssay (NCI)
Several values for one entry are separate records, joined by “and”; a condition that tells them apart may be missing. Equal entries are not always repeated.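 Grown in 96-well plates, cells were treated for 48 hours with each compound at five concentrations. Insufficient inhibition: endpoint recorded as highest concentration tested. GI50 marks 50% less growth. The concentration for full growth arrest is given as TGI.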

How the values were obtained:
Experiment in all cases: NCI anticancer screen, dose series, 48 h
[1] = tested on: A549 NSCLC
[2] = tested on: CCRF-CEM leukemia
[3] = tested on: HOP-92 NSCLC
[4] = tested on: M14 melanoma
[5] = tested on: MALME-3M melanoma
[6] = tested on: MOLT-4 leukemia
[7] = tested on: OVCAR-3 ovarian
[8] = tested on: SN12C renal
[9] = tested on: T-47D breast
[10] = tested on: TK-10 renal

SMILES	GI50 [1] [µM]	TGI [1] [µM]	GI50 [2] [µM]	GI50 [3] [µM]	TGI [3] [µM]	GI50 [4] [µM]	TGI [4] [µM]	GI50 [5] [µM]	TGI [5] [µM]	GI50 [6] [µM]	TGI [6] [µM]	GI50 [7] [µM]	TGI [7]	GI50 [8] [µM]	TGI [8] [µM]	GI50 [9] [µM]	TGI [9] [µM]	GI50 [10] [µM]	TGI [10] [µM]	TGI [2]
Cc1cn2c(/C=C3/C(=O)Nc4ccc(O)cc43)c(C)nc2s1	19.9	> 80.6	1.25	0.373	8.87	2.29	> 39.1	0.946	19.5	4.46	48.6	0.486	> 22.6 µM	3.79	41.4	2.64	25.5	2.43	26	
C=C1CC[C@@H]2[C@](C)(COC(C)=O)[C@H](OC(C)=O)CC[C@@]2(C)[C@@H]1CC(Nc1ccc(S(=O)(=O)Nc2ccc(Cl)nn2)cc1)C1=CCOC1=O (stereo partly drawn)	2.96	10.7	0.465	2.7	7.89	1.45	3.41	1.72	3.9	1.96	> 100	1.22	2.51 µM	1.25	3.66	1.51	4.25	2.13	4.19	2.6 µM
O=c1c(O)c(-c2ccc(O)c(O)c2)oc2cc(O)cc(O)c12	19.3	> 100	10.7	6.16	> 74.8	17.3	> 100	62	> 100	13	> 100	16	49.2 µM and > 100 µM	10.5	> 100	23.8	> 100	49.4	> 100	> 100 µM and 87.7 µM
COc1ccccc1CNCCCN1C(=O)c2ccc3c4c(ccc(c24)C1=O)C(=O)N(CCCN)C3=O	1.87	4.11	0.441	2.4	5.65	0.833	2.34	0.36	1.07	0.446	2.24	0.329	1.06 µM	1.29	2.76	1.22	3.31	2.28	7.89	2.76 µM
CC1=C(CCC(C)NCc2ccc(OCCCN3CCCCC3)cc2)C(C)(C)CCC1 (stereo not drawn)	2.17	4.35	1.54	1.26	2.72	0.214	0.468	1.6	3.29			1.79	4.07 µM	1.87	3.95	1.63	3.65	1.69	3.19	4.7 µM
N#Cc1nc2c(S(=O)(=O)c3ccc(Cl)cc3)c(N)n(CCCN3CCOCC3)c2nc1C#N	19.5	84.1	2.19	2.72	30.2			3.55	18.1	2.63	9.64	3.29	15.3 µM	10	> 100	2.95	16.6	10.1	23.6	6.28 µM
O=S(=O)(c1cccc2c(I)cccc12)N1CCCNCC1	37	> 100	14.1	14.1	32.5	19.8	39.2			10.9	27.6	18.7	43.3 µM	21.2	38.4	25.4	64.9	12.8	28	32.2 µM
COc1ccc(CC(=O)c2ccc(O)cc2O)cc1	> 100	> 100	49.4	12.3	62.1	> 100	> 100	45.2	> 100	57.4	> 100	61.5	> 100 µM	93.2	> 100	56.7	> 100			> 100 µM
CC[C@H](CO)Nc1nc(NCc2ccccc2)c2ncn(C(C)C)c2n1	20.1	> 100	> 50.6	28.1	> 90.7	31.6	> 100		50			12.9	> 67.4 µM	27	> 100	21.7	> 84.2	44.9	> 100	> 100 µM
CCN1C(=O)N(CC)C2C1NN=c1s/c(=C\c3ccccn3)c(=O)n12 (stereo not drawn)	2.15	> 100	1.53	2.37	> 100			1.63	> 100	1.57	> 100	0.403	2.2 µM	5.29	> 100	4.84	> 100	40.7	> 100	> 100 µM
Cn1cccc1-c1cc(-c2ccc(Br)cc2)[nH]c(=O)c1C#N	> 100	> 100	> 100	27.8	> 100			> 100	> 100	57.1	> 100	85.8	> 100 µM	> 100	> 100	> 100	> 100	> 100	> 100	> 100 µM
CCC[CH2][Sn]1([CH2]CCC)[O]C2C(CO)OC(n3ccc(N)nc3=O)C2[O]1 (stereo not drawn)	2.38	4.73		0.361	1.98	1.55	3.09	0.701	2.15	1.64	> 100	1.58	2.94 µM	1.45	2.83	0.383	2.49	1.15	2.38	
Nc1ncnc2c1c(-c1ccc(Oc3ccccc3)cc1)nn2C[C@@H]1SSC[C@H]1O	1.86	4.69	0.278	1.75	5.87			1.25	6.45			0.819	9.76 µM	2.31	10.2	1.09	10.3	1.49	3.16	> 100 µM
